Structures can show the parent of a compound that is named as a salt. Where two headings read alike, the source gives them in different places.
Assays:
Type in all cases: cell-based
[1] = tested on: ML-2; test: Alamar Blue cell viability assay, ML-2; settings: Homo sapiens, 96 h incubation, read-out: cell proliferation inhibition ML-2
Procedure: (§1) Inhibitory activity on cell proliferation of representative compounds of the invention was determined using an Alamar Blue cell viability assay as described hereafter.
(§2) 3000 cancer cells in 100 uL of cell culture media were plated in each well of a 96-well clear bottom, black wall cell culture-pretreated plate.
(§3) The next day compounds are serially diluted (3-fold in cell culture media) across a 96-well polypropylene mother plate from row A to row F, to yield 6 concentrations (10 uM, 3.3 uM, 1.1 uM, 370 nM, 124 nM and 41 nM) for each test compound. Rows G and H contain only DMSO.
(§4) Once titrations are made, the media in plates with cells were disposed and 100 μL of drug dilutions are transferred to plates with cells. After a ninety six-hour incubation at 37° C., 10 uL of resazurin solution from Alamar Blue Cell Viability kit (Invitrogen, Carlsbad, Calif.) was added to the media and cells were incubated at 37° C. for three more hours. At the end of this incubation the production of resofurin was measured using Spectrmax M2 microplate reader (Molecular Devices, Sunnyvale, Calif.)

[2] = tested on: A549; test: Alamar Blue cell viability assay, A549; settings: Homo sapiens, 96 h incubation, read-out: cell proliferation inhibition A549
Procedure: as §1, §2, §3, §4

[3] = tested on: 4T1; test: Alamar Blue cell viability assay, 4T1; settings: Mus musculus, 96 h incubation, read-out: cell proliferation inhibition 4T1
Procedure: as §1, §2, §3, §4

[4] = tested on: MCF7; test: Alamar Blue cell viability assay, MCF7; settings: Homo sapiens, 96 h incubation, read-out: cell proliferation inhibition MCF7
Procedure: as §1, §2, §3, §4

[5] = tested on: CT26; test: Alamar Blue cell viability assay, CT26; settings: Mus musculus, 96 h incubation, read-out: cell proliferation inhibition CT26
Procedure: as §1, §2, §3, §4

[6] = tested on: HT-1080; test: Alamar Blue cell viability assay, HT-1080; settings: Homo sapiens, 96 h incubation, read-out: cell proliferation inhibition HT-1080
Procedure: as §1, §2, §3, §4

[7] = tested on: Hep G2; test: Alamar Blue cell viability assay, Hep G2; settings: Homo sapiens, HepG2, 96 h incubation, read-out: cell proliferation inhibition Hep G2
Procedure: as §1, §2, §3, §4

[8] = tested on: ES.2; test: Alamar Blue cell viability assay, ES.2; settings: Homo sapiens
Procedure: as §1, §2, §3, §4

[9] = tested on: LnCAP; test: Alamar Blue cell viability assay, LnCAP; settings: Homo sapiens, 96 h incubation, read-out: cell proliferation inhibition LnCAP
Procedure: as §1, §2, §3, §4

[10] = tested on: SKM_1_AV; test: Alamar Blue cell viability assay, SKM_1_AV; settings: 96 h incubation, read-out: cell proliferation inhibition SKM_1_AV
Procedure: as §1, §2, §3, §4

[11] = tested on: AGS; test: Alamar Blue cell viability assay, AGS; settings: Homo sapiens, 96 h incubation, read-out: cell proliferation inhibition AGS
Procedure: as §1, §2, §3, §4

[12] = tested on: PC-3; test: Alamar Blue cell viability assay, PC-3; settings: Homo sapiens, 96 h incubation, read-out: cell proliferation inhibition PC-3
Procedure: as §1, §2, §3, §4

[13] = tested on: NB4-Av; test: Alamar Blue cell viability assay, NB4-Av; settings: 96 h incubation, read-out: cell proliferation inhibition NB4-Av
Procedure: as §1, §2, §3, §4

[14] = tested on: SKM-1; test: Alamar Blue cell viability assay, SKM-1; settings: Homo sapiens, 96 h incubation, read-out: cell proliferation inhibition SKM-1
Procedure: as §1, §2, §3, §4

[15] = tested on: B16-F10; test: Alamar Blue cell viability assay, B16-F10; settings: Mus musculus, 96 h incubation, read-out: cell proliferation inhibition B16-F10
Procedure: as §1, §2, §3, §4

[16] = tested on: MDA-MB-231; test: Alamar Blue cell viability assay, MDA-MB-231; settings: Homo sapiens, 96 h incubation, read-out: cell proliferation inhibition MDA-MB-231
Procedure: as §1, §2, §3, §4

[17] = tested on: Hs.294T; test: Alamar Blue cell viability assay, Hs.294T; settings: Homo sapiens, 96 h incubation, read-out: cell proliferation inhibition Hs.294T
Procedure: as §1, §2, §3, §4

[18] = tested on: WM-115; test: Alamar Blue cell viability assay, WM-115; settings: Homo sapiens, 96 h incubation, read-out: cell proliferation inhibition WM-115
Procedure: as §1, §2, §3, §4

[19] = tested on: DLD-1; test: Alamar Blue cell viability assay, DLD-1; settings: Homo sapiens, 96 h incubation, read-out: cell proliferation inhibition DLD-1
Procedure: as §1, §2, §3, §4

[20] = tested on: NCI-H1299; test: Alamar Blue cell viability assay, NCI-H1299; settings: Homo sapiens, 96 h incubation, read-out: cell proliferation inhibition NCI-H1299
Procedure: as §1, §2, §3, §4

[21] = tested on: NOMO-1; test: Alamar Blue cell viability assay, NOMO-1; settings: Homo sapiens, 96 h incubation, read-out: cell proliferation inhibition NOMO-1
Procedure: as §1, §2, §3, §4

[22] = tested on: KG-1; test: Alamar Blue cell viability assay, KG-1; settings: Homo sapiens, 96 h incubation, read-out: cell proliferation inhibition KG-1
Procedure: as §1, §2, §3, §4

[23] = tested on: HCT-116; test: Alamar Blue cell viability assay, HCT-116; settings: Homo sapiens, 96 h incubation, read-out: cell proliferation inhibition HCT-116
Procedure: as §1, §2, §3, §4

[24] = tested on: A375 cell line; test: Alamar Blue cell viability assay, A375; settings: Homo sapiens, A-375, cell proliferation inhibition, Alamar Blue, 96 h incubation
Procedure: as §1, §2, §3, §4

[25] = tested on: EF-21; test: Alamar Blue cell viability assay, EF-21 ovarian cell line; settings: 96 h incubation, read-out: IC50 in ovarian cell lines EF-21
Procedure: as §1, §2, §3, §4

[26] = tested on: Malme-3M; test: Alamar Blue cell viability assay, Malme-3M; settings: Homo sapiens, cell proliferation inhibition, 96 h incubation, read-out: Pharmaceutical activity IC50 Malme-3M
Procedure: as §1, §2, §3, §4

[27] = tested on: kuramochi; test: Alamar Blue cell viability assay, kuramochi ovarian cell line; settings: 96 h incubation, read-out: IC50 in ovarian cell lines kuramochi
Procedure: as §1, §2, §3, §4

[28] = tested on: JHOC7; test: Alamar Blue cell viability assay, JHOC7 ovarian cell line; settings: 96 h incubation, read-out: IC50 in ovarian cell lines JHOC7
Procedure: as §1, §2, §3, §4

[29] = tested on: TOV112D; test: Alamar Blue cell viability assay, TOV112D ovarian cell line; settings: Homo sapiens, 96 h incubation, read-out: IC50 in ovarian cell lines TOV112D
Procedure: as §1, §2, §3, §4

[30] = tested on: JHOM1; test: Alamar Blue cell viability assay, JHOM1 ovarian cell line; settings: 96 h incubation, read-out: IC50 in ovarian cell lines JHOM1
Procedure: as §1, §2, §3, §4

[31] = tested on: 2008; test: Alamar Blue cell viability assay, 2008; settings: cell proliferation inhibition, 96 h incubation, read-out: Pharmaceutical activity IC50 2008
Procedure: as §1, §2, §3, §4

[32] = tested on: JHOC9; test: Alamar Blue cell viability assay, JHOC9 ovarian cell line; settings: 96 h incubation, read-out: IC50 in ovarian cell lines JHOC9
Procedure: as §1, §2, §3, §4

[33] = tested on: A2058; test: Alamar Blue cell viability assay, A2058; settings: Homo sapiens, cell proliferation inhibition, 96 h incubation, read-out: Pharmaceutical activity IC50 A2058
Procedure: as §1, §2, §3, §4

[34] = tested on: U-87 MG; test: Alamar Blue cell viability assay, U-87 MG; settings: Homo sapiens, cell proliferation inhibition, 96 h incubation, read-out: Pharmaceutical activity IC50 U-87 MG
Procedure: as §1, §2, §3, §4

[35] = tested on: SK-MEL 28; test: Alamar Blue cell viability assay, SK-MEL 28; settings: Homo sapiens, cell proliferation inhibition, 96 h incubation, read-out: Pharmaceutical activity IC50 SK-MEL 28
Procedure: as §1, §2, §3, §4

[36] = tested on: A2780; test: Alamar Blue cell viability assay, A2780; settings: Homo sapiens, cell proliferation inhibition, 96 h incubation, read-out: Pharmaceutical activity IC50 A2780
Procedure: as §1, §2, §3, §4

[37] = Table 2, 96 h incubation, read-out: cell proliferation inhibition ES.2
[38] = read-out: Pharmaceutical activity IC50 A375
[39] = Table 4, read-out: Pharmaceutical activity in A375 cell line IC50

Work on `CN1CCCN(c2ccc3cc(C(=O)O)c4nc5ccccc5n4c3n2)CC1` [Compound 1A, 2-(4-methyl-[1,4]diazepan-1-yl)-1,7,11b-triaza-benzo[c]fluorene-6-carboxylate sodium salt] yielded an IC50 [1] of under 1 µM, an IC50 [2] of 5 to 10 µM and an IC50 [3] of 5 to 10 µM. The IC50 [4] was 1 to 5 µM, the IC50 [5] was 5 to 10 µM and the IC50 [6] was 1 to 5 µM. It also gave an IC50 [7] of under 1 µM, an IC50 [8, 37] of under 1 µM and an IC50 [9] of 5 to 10 µM. For the same compound, the IC50 [10] was under 1 µM, the IC50 [11] was 1 to 5 µM and the IC50 [12] was 1 to 5 µM. It also gave an IC50 [13] of under 1 µM, an IC50 [14] of under 1 µM and an IC50 [15] of 5 to 10 µM. It also gave an IC50 [16] of 1 to 5 µM, an IC50 [17] of under 1 µM and an IC50 [18] of under 1 µM. It also gave an IC50 [19] of 1 to 5 µM, an IC50 [20] of 1 to 5 µM and an IC50 [21] of under 1 µM. It also gave an IC50 [22] of under 1 µM, an IC50 [23] of under 1 µM and an IC50 [24, 38] of under 1 µM.

Work on `CNC(=O)c1cc2ccc(N3CCCN(C)CC3)nc2n2c1nc1ccccc12` [Compound 2G, 2-(4-methyl-[1,4]diazepan-1-yl)-1,7,11b-triazabenzo[c]fluorene-6-carboxylic acid methylamide] yielded an IC50 [1] of under 1 µM, an IC50 [2] of 1 to 5 µM and an IC50 [3] of 5 to 10 µM. It also gave an IC50 [4] of 1 to 5 µM, an IC50 [5] of 1 to 5 µM and an IC50 [6] of 1 to 5 µM. It also gave an IC50 [7] of under 1 µM, an IC50 [25] of under 1 µM and an IC50 ([8]; Table 1, cell proliferation inhibition, 96 h incubation, read-out: Pharmaceutical activity IC50 ES.2) of under 1 µM. For the same compound, the IC50 [8, 37] was under 1 µM, the IC50 [26] was under 1 µM and the IC50 [9] was 1 to 5 µM. For the same compound, the IC50 [27] was under 1 µM, the IC50 [10] was under 1 µM and the IC50 [28] was under 1 µM. It also gave an IC50 [11] of under 1 µM, an IC50 [29] of under 1 µM and an IC50 [30] of under 1 µM. For the same compound, the IC50 [12] was under 1 µM, the IC50 [31] was under 1 µM and the IC50 [13] was under 1 µM. It also gave an IC50 [14] of under 1 µM, an IC50 [32] of under 1 µM and an IC50 [33] of under 1 µM. It also gave an IC50 [15] of 1 to 5 µM, an IC50 [16] of under 1 µM and an IC50 [34] of under 1 µM. It also gave an IC50 [17] of under 1 µM, an IC50 [18] of 1 to 5 µM and an IC50 [35] of under 1 µM. It also gave an IC50 [19] of under 1 µM, an IC50 [36] of under 1 µM and an IC50 [20] of 1 to 5 µM. The IC50 [21] was under 1 µM, the IC50 [22] was under 1 µM and the IC50 [23] was under 1 µM. The IC50 [24, 38] was under 1 µM.

For `C[C@@H]1CN(c2ccc3cc(C#N)c4nc5ccccc5n4c3n2)C[C@H](C)N1` [Compound 3A, 2-((3S,5R)-3,5-dimethylpiperazin-1-yl)-1,7,11b-triaza-benzo[c]fluorene-6-carbonitrile], the IC50 [1] was under 1 µM, the IC50 [2] was 5 to 10 µM and the IC50 [3] was 5 to 10 µM. For the same compound, the IC50 [4] was 5 to 10 µM, the IC50 [5] was 5 to 10 µM and the IC50 [6] was 5 to 10 µM. It also gave an IC50 [7] of under 1 µM, an IC50 [9] of 5 to 10 µM and an IC50 [10] of under 1 µM. For the same compound, the IC50 [11] was under 1 µM, the IC50 [12] was 1 to 5 µM and the IC50 [13] was under 1 µM. For the same compound, the IC50 [14] was under 1 µM, the IC50 [15] was 1 to 5 µM and the IC50 [16] was under 1 µM. For the same compound, the IC50 [19] was under 1 µM, the IC50 [20] was 5 to 10 µM and the IC50 [21] was under 1 µM. It also gave an IC50 [22] of under 1 µM, an IC50 [23] of under 1 µM and an IC50 [24, 38] of under 1 µM.

`Cc1cnc(CNC(=O)c2cc3ccc(N4CCCN(C)CC4)nc3n3c2nc2ccccc23)cn1` [Compound 2E, 2-(4-methyl-[1,4]diazepan-1-yl)-1,7,11b-triazabenzo[c]fluorene-6-carboxylic acid (5-methylpyrazin-2-ylmethyl)-amide] gave an IC50 [33] of 5 to 10 µM and an IC50 [24, 38] of under 1 µM.

With `CN1CCCN(C(=O)c2cc3cc(F)cnc3n3c2nc2ccccc23)CC1` [Compound 7C, (3-Fluoro-1,7,11b-triaza-benzo[c]fluoren-6-yl)-(4-methyl-[1,4]diazepan-1-yl)-methanone] the IC50 [24, 39] was over 10 µM.

In the case of `CN(C)C1CCN(c2ccc3cc(C#N)c4nc5ccccc5n4c3n2)C1` (centres unmarked) [Compound 3F, 2-(3-Dimethylamino-pyrrolidin-1-yl)-1,7,11b-triaza-benzo[c]fluorene-6-carbonitrile], the IC50 [24, 39] is reported as under 1 µM.
